By IC50 is commonly meant the concentration that gives 50% inhibition.

The target of one assay is CDK2:CCNE1 (Homo sapiens (Human), UniProt P24941). Put plainly: NanoBRET assay in MCF-7 cells, CDK2. The note with it: transfected MCF-7 cells, 2 hours, n = 1 or average. In kind it is cell-based. The gist of the method: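 In live MCF-7 cells, compound added followed by NanoBRET TE Tracer K-9 (stock 200 μM) for CDK2, 2 h at 37° C, 5% CO2.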
Another assay has as its system OVCAR3 cells. Put plainly: Cellular proliferation EdU assay, OVCAR3. In kind it is cell-based, human. The conditions noted are these: Homo sapiens, OVCAR-3, 48 h, EdU assay, two days; read-out: OVCAR3 IC50. The method, boiled down: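 MCF-7 (800 cells/well) and OVCAR3 (1200 cells/well) in RPMI with 10% FBS exposed to compounds for two days at 37 °C.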
Another assay concerns the target CDK4:CCND1 (Homo sapiens (Human), UniProt P11802). Put plainly: NanoBRET assay in MCF-7 cells, CDK4. It counts as cell-based. The conditions noted are these: NanoBRET, transfected MCF-7 cells, 2 hours; n = 1 or average; read-out: CDK4 IC50. The gist of the method: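 Transiently transfected MCF-7 cells expressing CDK1:CCNB1 or CDK4:CCND1 were treated with compound plus tracer (CDK1: Tracer K-9, 400 μM stock; CDK4: Tracer K-7, 100 μM stock) for 2 h at 37 °C.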
Background: BRET reads energy transfer from a luciferase to a nearby fluorophore.

For assay [1], the system named is NPM phosphorylation (Thr199, CDK2-cyclin E complex). Put plainly: NPM phosphorylation imaging assay in MCF-7 cells. It counts as cell-based. The note with it: Homo sapiens, MCF7, 2 h, 4N DNA cells. The method, boiled down: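 MCF-7 cells were fixed, permeabilised and immunostained, then imaged for phospho-NPM (Thr199), a CDK2-cyclin E site. Analysis was gated on 4N-DNA cells by Hoechst staining. Signals were normalised to controls and fitted for IC50.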

Assay [2] concerns the target 379 non-CDK kinase (or non-CDK kinase-complex) targets. Put plainly: Kinase profiling (SelectScreen, ThermoFisher). In kind it is biochemical. The conditions noted are these: compared with Compound 6. The text has this: Test compounds were profiled against a broad panel of kinases at ThermoFisher Scientific using the SelectScreen Kinase Profiling Services. Each kinase assay used one of the following assay technology protocols: • 1) Z-LYTE™ Screening Protocol and Assay Conditions (Revised 23 Jan. 2018 version) available at http://assets.thermofisher.com/TFS-Assets/BID/Methods-&-Protocols/20180123_SSBK_Customer_Protocol_and_Assay_Conditions.pdf; • 2) Adapta™ Screening Protocol and Assay Conditions (Revised 23 Jan. 2018 version) available at http://assets.thermofisher.com/TFS-Assets/BID/Methods-&-Protocols/20180123_SSBK_Adapta_Customer_Protocol_and_Assay_Conditions.pdf; or • 3) LanthaScreen™ Eu Kinase Binding Assay Screening Protocol and Assay Conditions (Revised 23 Jan. 2018 version) available at http://assets.thermofisher.com/TFS-Assets/BID/Methods-&-Protocols/20180123_SSBK_LanthaScreen_Binding_Customer_Protocol_and_Assay_Co nditions.pdf.

CDK4:CCND1, sequence (P11802 whole entry): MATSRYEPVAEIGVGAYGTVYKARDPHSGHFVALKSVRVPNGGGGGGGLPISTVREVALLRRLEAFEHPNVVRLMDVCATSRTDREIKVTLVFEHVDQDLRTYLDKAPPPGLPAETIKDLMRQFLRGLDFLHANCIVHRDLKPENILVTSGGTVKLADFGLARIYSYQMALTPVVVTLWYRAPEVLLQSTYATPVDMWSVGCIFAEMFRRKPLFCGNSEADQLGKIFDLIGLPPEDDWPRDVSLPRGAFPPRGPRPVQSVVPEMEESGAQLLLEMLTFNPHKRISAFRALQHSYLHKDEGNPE
CDK4:CCND1, sequence (P24385 whole entry partner): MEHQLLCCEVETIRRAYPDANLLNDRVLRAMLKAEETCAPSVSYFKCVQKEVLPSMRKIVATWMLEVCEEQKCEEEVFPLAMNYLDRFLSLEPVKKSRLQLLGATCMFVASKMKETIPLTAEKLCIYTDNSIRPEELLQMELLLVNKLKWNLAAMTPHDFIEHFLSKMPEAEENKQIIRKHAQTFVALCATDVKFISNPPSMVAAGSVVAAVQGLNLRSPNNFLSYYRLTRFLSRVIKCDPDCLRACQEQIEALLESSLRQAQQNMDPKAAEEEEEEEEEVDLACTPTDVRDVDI

On to `CCn1cnc2c(N[C@H]3CCN(S(=O)(=O)NC)C3)nc(-c3cccc4c3CC[C@]4(C)O)nc21` (relative stereo) [Example 3, (S)-3-((9-ethyl-2-((R*)-1-hydroxy-1-methyl-2,3-dihydro-1H-inden-4-yl)-9H-purin-6-yl)amino)-N-methylpyrrolidine-1-sulfonamide], for which the IC50 against CDK2:CCNE1 is 0.018 µM; in the assay with OVCAR3 cells, 0.457 µM; on CDK4:CCND1, 12.8 µM; in assay [1] it was 0.233 µM. Also, the kinase inhibition profile entry in assay [2] is “broadly similar kinase inhibition profiles to Compound 6”.

As for `CCn1cnc2c(N[C@@H]3CN(S(=O)(=O)c4ncc[nH]4)C[C@H]3F)nc(N[C@@H](CO)C3CC3)nc21` (relative stereo) [Example 17, (R)-2-((6-(((3R*,4R*)-1-((1H-imidazol-2-yl)sulfonyl)-4-fluoropyrrolidin-3-yl)amino)-9-ethyl-9H-purin-2-yl)amino)-2-cyclopropylethan-1-ol], the IC50 against CDK2:CCNE1 came out at 0.009 µM; in the assay with OVCAR3 cells it was 0.044 µM; at CDK4:CCND1, 1.2 µM; in assay [1], 0.011 µM.

For `CCNS(=O)(=O)N1CC[C@H](Nc2nc(N[C@@H](CO)C3CC3)nc3c2ncn3C)C1` [Example 19, (S)-3-((2-(((R)-1-cyclopropyl-2-hydroxyethyl)amino)-9-methyl-9H-purin-6-yl)amino)-N-ethylpyrrolidine-1-sulfonamide], the IC50 against CDK2:CCNE1 stood at 0.027 µM; in the assay with OVCAR3 cells, 0.276 µM; on CDK4:CCND1 it was 5.8 µM; in assay [1], 0.133 µM. The kinase inhibition profile entry in assay [2] is “broadly similar kinase inhibition profiles to Compound 6”.

On to `CCNS(=O)(=O)N1CC[C@H](Nc2nc(N[C@@H](CC)[C@@H](C)O)nc3c2ncn3C)C1` [Example 53, (S)—N-ethyl-3-((2-(((2R,3S)-2-hydroxypentan-3-yl)amino)-9-methyl-9H-purin-6-yl)amino)pyrrolidine-1-sulfonamide], for which the IC50 against CDK2:CCNE1 was 0.043 µM; in the assay with OVCAR3 cells, 0.616 µM; at CDK4:CCND1, > 29.7 µM; in assay [1] it was 0.241 µM. Also, the kinase inhibition profile entry in assay [2] was “broadly similar kinase inhibition profiles to Compound 6”.
